Data published in paper PMC9631409 (ACS Omega, 2022).

Target: T1, FmtA^Δ80 (Staphylococcus aureus, UniProt O50608)
T1 sequence (O50608 81-397): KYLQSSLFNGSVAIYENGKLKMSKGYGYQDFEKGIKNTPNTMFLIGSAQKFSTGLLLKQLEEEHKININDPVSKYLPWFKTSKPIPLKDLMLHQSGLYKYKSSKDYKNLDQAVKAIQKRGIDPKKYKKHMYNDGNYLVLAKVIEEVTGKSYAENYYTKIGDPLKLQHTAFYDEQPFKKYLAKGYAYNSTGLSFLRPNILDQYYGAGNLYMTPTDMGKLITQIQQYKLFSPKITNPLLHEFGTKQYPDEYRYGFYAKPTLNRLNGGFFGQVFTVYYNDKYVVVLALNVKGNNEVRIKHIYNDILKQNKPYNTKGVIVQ
Experiment: isothermal titration calorimetry, one-site model
Assay type: binding

| Compound | Kd [µM] |
| --- | --- |
| [H]/N=C(/N)N[C@H]1[C@H](O)[C@@H](O)[C@H](O[C@@H]2O[C@@H](C)[C@](O)(C=O)[C@H]2O[C@@H]2O[C@@H](CO)[C@H](O)[C@@H](O)[C@@H]2NC)[C@@H](N/C(N)=N\[H])[C@@H]1O [streptomycin] | 11.1 |
| NC[C@@H]1O[C@H](O[C@H]2[C@@H](O)[C@H](O[C@@H]3[C@@H](O)[C@H](N)C[C@H](N)[C@H]3O[C@H]3O[C@H](CO)[C@@H](O)[C@H](O)[C@H]3N)O[C@@H]2CO)[C@H](N)[C@@H](O)[C@@H]1O [paromomycin] | 8.56 |
| CO/N=C1\CN(c2nc3c(cc2F)c(=O)c(C(=O)O)cn3C2CC2)CC1CN (stereo not shown) [gemifloxacin] | 1.7 |
| NC[C@H]1O[C@H](O[C@H]2[C@H](O)[C@@H](O[C@H]3O[C@H](CO)[C@@H](O)[C@H](N)[C@H]3O)[C@H](N)C[C@@H]2N)[C@H](N)C[C@@H]1O [tobramycin] | 25.8 |
